According to US20030186464A1, “Surface plasmon resonance methods” (priority 2002, published 2003):

Assays:
[1] = target: T1, immobilized IL-2 (Homo sapiens, UniProt P60568); assay: Double ligand SPR on immobilized interleukin-2 (Examples 9-11); assay type: binding; conditions: for Kd: Example 11, immobilized interleukin-2, read-out: apparent Kd in SPR experiments
T1 construct: made in house; host or cells: E. coli
Procedure: A CM5 sensor chip (Biacore-BR-1000-14) is docked in a Biacore 2000 SPR device and normalized using a standard Biacore protocol with 70% glycerol. The chip is next equilibrated in PBS for approximately 1 hr at a 20 μL/min flow rate. The dextran surface of the chip is activated through an NHS/EDC coupling. This coupling is done using an amine coupling kit (Biacore—BR-100-50) containing N-hydroxysuccinimide (NHS 11.5 mg/mL) and N-ethyl-N′-(3-dimethylaminopropyl) carbodiimide hydrochloride (EDC 75 mg/mL). First, the two reagents are mixed in a 1:1 ratio and then 35 μL of the mixture are injected at 5 μL/min. The chip is activated one flow cell at a time, and that flow cell is subsequently labeled with protein.
IL-2 is expressed in E. coli cells and purified using standard procedures. Protein is then concentrated to 100 μM and the buffer is exchanged to 100 mM MES pH 5.75 (Nap-5 column, Pierce). A sensorgram is then run over the activated flow cell at 2,L/min of PBS. The IL-2 solution is then injected at 2 μL/min for 10 min. After injection the change in RUs is measured by marking the RUs at t=0 and t=final and subtracting. This gives the total RU change, which is related to the total mass of protein successfully coupled to the CM5 surface. The total mass will later be used to determine stoichiometry of binding. This procedure is then repeated with another arbitrary protein to create a measure for nonspecific binding. The arbitrary protein is immobilized on an adjacent cell. […] The sensorgram is then altered to flow across all four cells on the CM5 chip at 5 μL/min PBS. A solution of 1 M ethanolamine hydrochloride-NaOH pH 8.5 (Amine coupling kit, Biacore-BR-100-50) is injected at 5 μL/min for 7 min. Proteins are immobilized at densities of 100-160 fmol/mm^2. The chip is equilibrated overnight in PBS+0.05% azide+2% DMSO at 20 μL/min.
In this experiment, variable concentrations of a compound are tested at a constant concentration of another compound. The compound held constant is 2c, for example (structure shown in Example 2). To determine appropriate constant concentrations for 2c, a compound titration is first performed. Dilution series of the compounds are typically performed to produce seven solutions having final compound concentrations of 30 mM, 10 mM, 3.3 mM, 1.1 mM, 0.37 mM, 0.12 mM, and 0.041 mM; an eighth solution is a DMSO-only baseline. The compounds are then diluted into PBS+0.05% azide to final concentrations of 300 μM, 100 μM, 33 μM, 11 μM, 3.7 μM, 1.2 μM, 0.41 μM. The compound solutions are injected from lowest concentration to highest at 40 μL/min for 1 min. The SPR software method includes a 1 min wash before injection, the injection and then a 3 min wash after the injection.
These dilution series are analyzed by BIAevaluation software version 3.0. Sensorgrams are plotted for compound binding to the IL-2 labeled cell of the chip. The sensorgrams are modified by subtracting the sensorgrams for the appropriate compound dilutions over cell 1 (a blank cell). This subtraction step removes any RU changes that might occur due to non-specific interactions between the compound and the chip itself or refractive changes in the buffer. Finally, the eight sensorgrams produced from the compound dilution series are zeroed at the average of their starting RUs. Then the sensorgram produced by injecting DMSO only is subtracted to reveal the final sensorgrams used to determine relative binding.
To determine KdSPR for the compound, the compound concentration is plotted on the X-axis, while the fraction bound at the plateau of the injection is plotted on the Y-axis. The curve is then analyzed via non-linear regression analysis (Kaleidagraph, Synergy Software). […] The concentration chosen is where the RUs remain constant at the top of the binding curve and thus the IL-2:2c ratio is 1. For 2c, this concentration is 100 μM.
A second compound is then run, this time in both the presence and absence of 2c. […]

[2] = target: wild type human IL-2 (Homo sapiens, UniProt P60568); assay: SPR binding of compounds to immobilized wild type IL-2 (Examples 1-2); conditions: for IL-2 wt Kd: immobilized wild type human IL-2
[3] = target: T2, Y31C-IL-2-SS -3 (Homo sapiens, UniProt P60568, Y51C); assay: SPR binding of compound to immobilized IL-2-SS-ligand complex (Examples 1-2); conditions: immobilized substrate-SS-ligand complex Y31C-IL-2-SS -3
T2 construct: made in house; host or cells: E. coli
Procedure: (§1) A CM5 sensor chip (Biacore-BR-1000-14) is docked in a Biacore 2000 SPR device, and the chip is then normalized using a standard Biacore protocol with 70% glycerol. The chip is next equilibrated in PBS for approximately 1 hr at a 20 μL/min flow rate. The dextran surface of the chip is activated through an NHS/EDC coupling. This activation is done using an amine coupling kit (Biacore—BR-100-50) containing N-hydroxysuccinimide (NHS 11.5 mg/mL) and N-ethyl-N′-(3-dimethylaminopropyl) carbodiimide hydrochloride (EDC 75 mg/mL). The two reagents are first mixed in a 1:1 ratio and then 35 μL of the mixture are injected at […]. The chip is activated one flow cell at a time, and that flow cell is subsequently labeled with protein.
(§2) IL-2 cysteine mutants are expressed in E. coli cells and purified using standard procedures. The cysteine mutants are treated with 10 mM βME overnight to reduce the surface cysteine. The βME is removed and the protein-thiolate is placed in 100 mM HEPES buffer pH 7.4 (Nap-5 column, Pierce). […]
(§3) The protein-SS—ligand complex is next concentrated to 100 μM using a Millipore-UFV5BCCOO 5K NMWL membrane, 0.5 mL centrifugal filter and tube. […] After injection the change in RUs is measured by marking the RUs at t=0 and t=final and subtracting. […]
(§4) The dilution series are analyzed by BIAevaluation software version 3.0. […]

[4] = target: T3, Y31C-IL-2-SS -4 (Homo sapiens, UniProt P60568, Y51C); assay: as above; conditions: immobilized substrate-SS-ligand complex Y31C-IL-2-SS -4
T3 construct: made in house; host or cells: E. coli
Procedure: as §1, §2, §3, §4

[5] = target: T4, K43C-IL-2-SS -2 (Homo sapiens, UniProt P60568, K63C); assay: SPR binding of compounds to immobilized IL-2-SS-ligand complex (Examples 1-2); conditions: immobilized substrate-SS-ligand complex K43C-IL-2-SS -2
T4 construct: made in house; host or cells: E. coli
Procedure: as §1, §2, §3, §4

T1 sequence (P60568 21-153): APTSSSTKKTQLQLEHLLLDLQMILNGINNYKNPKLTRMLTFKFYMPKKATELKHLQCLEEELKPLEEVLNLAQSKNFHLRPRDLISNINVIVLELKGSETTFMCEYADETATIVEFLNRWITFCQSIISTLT
wild type human IL-2, sequence (P60568 21-153): as above
T4 sequence (P60568 21-153 K63C): as the sequence (P60568 21-153) above, with K43C counted along it
T2 sequence (P60568 21-153 Y51C): as the sequence (P60568 21-153) above, with Y31C counted along it
T3 sequence (P60568 21-153 Y51C): as the sequence (P60568 21-153) above, with Y31C counted along it

## COC(=O)[C@H](Cc1ccc(C=Cc2ccccc2)cc1)NC(=O)C[C@H]1CCCN(C(=N)N)C1 [Compound 2c]
[1]
  Kd: 10 µM
[2]; immobilized wild type human IL-2, read-out: IL-2 wt Kd
  Kd: 33 µM
[3]
  Kd: 8 µM
[4]
  Kd: 30 µM

## COCC(=O)N1CCc2c([nH]c3ccccc23)C1 [Compound 3c]
[5]
  Kd: 250 µM
[1]
  Kd: > 500 µM
[2]
  IL-2 wt Kd: Inactive

## COCN(C)C(=O)c1ccc(C(C)C)cc1 [Compound 4c]
[5]
  Kd: 210 µM
[1]; immobilized IL-2, no other compound
  Kd,SPR IL-2: Inactive
[2]
  IL-2 wt Kd: Inactive
